The results in this text go back to patent publication US10745400B2, “Inhibition of BMP signaling, compounds, compositions and uses thereof” (Vanderbilt University, priority 2018, dated 2020).

The subject of series [1] is BMP-responsive C2C12 mouse myoblast cells stimulated with BMP4. Description: BMP4 cell assay (Id1 promoter-firefly luciferase reporter). In kind it is cell-based. Particulars: Mus musculus; C2C12 cells, BMP4 50 ng/mL, overnight.
Series [2] deals with KDR (Homo sapiens, UniProt P35968). In words: Kinase assay (33P-ATP filter-binding), KDR. In kind it is biochemical. The note with it: read-out: Kinase Selectivity KDR. On the procedure: (§1) The kinase assays were carried out briefly as follows. Substrate was prepared in Base Reaction Buffer (20 mM Hepes (pH 7.5), 10 mM MgCl2, 1 mM EGTA, 0.02% Brij35, 0.02 mg/ml BSA, 0.1 mM Na3VO4, 2 mM DTT, 1% DMSO). The indicated kinases was delivered into the substrate solution and allowed to gently mix. Next, the specific compound was delivered in DMSO into the kinase mixture by Acoustic technology (Echo550; nanoliter range), and allowed to incubate for 20 minutes at room temperature. Next, ^33P-ATP was delivered into the reaction mixture to initiate the reaction and allowed to incubate at room temperature. After 2 hours, the reactions were spotted onto P81 ion exchange paper and the kinase activity is detected by the filter-binding method.
Sequence of KDR (P35968 20-1356, species assumed): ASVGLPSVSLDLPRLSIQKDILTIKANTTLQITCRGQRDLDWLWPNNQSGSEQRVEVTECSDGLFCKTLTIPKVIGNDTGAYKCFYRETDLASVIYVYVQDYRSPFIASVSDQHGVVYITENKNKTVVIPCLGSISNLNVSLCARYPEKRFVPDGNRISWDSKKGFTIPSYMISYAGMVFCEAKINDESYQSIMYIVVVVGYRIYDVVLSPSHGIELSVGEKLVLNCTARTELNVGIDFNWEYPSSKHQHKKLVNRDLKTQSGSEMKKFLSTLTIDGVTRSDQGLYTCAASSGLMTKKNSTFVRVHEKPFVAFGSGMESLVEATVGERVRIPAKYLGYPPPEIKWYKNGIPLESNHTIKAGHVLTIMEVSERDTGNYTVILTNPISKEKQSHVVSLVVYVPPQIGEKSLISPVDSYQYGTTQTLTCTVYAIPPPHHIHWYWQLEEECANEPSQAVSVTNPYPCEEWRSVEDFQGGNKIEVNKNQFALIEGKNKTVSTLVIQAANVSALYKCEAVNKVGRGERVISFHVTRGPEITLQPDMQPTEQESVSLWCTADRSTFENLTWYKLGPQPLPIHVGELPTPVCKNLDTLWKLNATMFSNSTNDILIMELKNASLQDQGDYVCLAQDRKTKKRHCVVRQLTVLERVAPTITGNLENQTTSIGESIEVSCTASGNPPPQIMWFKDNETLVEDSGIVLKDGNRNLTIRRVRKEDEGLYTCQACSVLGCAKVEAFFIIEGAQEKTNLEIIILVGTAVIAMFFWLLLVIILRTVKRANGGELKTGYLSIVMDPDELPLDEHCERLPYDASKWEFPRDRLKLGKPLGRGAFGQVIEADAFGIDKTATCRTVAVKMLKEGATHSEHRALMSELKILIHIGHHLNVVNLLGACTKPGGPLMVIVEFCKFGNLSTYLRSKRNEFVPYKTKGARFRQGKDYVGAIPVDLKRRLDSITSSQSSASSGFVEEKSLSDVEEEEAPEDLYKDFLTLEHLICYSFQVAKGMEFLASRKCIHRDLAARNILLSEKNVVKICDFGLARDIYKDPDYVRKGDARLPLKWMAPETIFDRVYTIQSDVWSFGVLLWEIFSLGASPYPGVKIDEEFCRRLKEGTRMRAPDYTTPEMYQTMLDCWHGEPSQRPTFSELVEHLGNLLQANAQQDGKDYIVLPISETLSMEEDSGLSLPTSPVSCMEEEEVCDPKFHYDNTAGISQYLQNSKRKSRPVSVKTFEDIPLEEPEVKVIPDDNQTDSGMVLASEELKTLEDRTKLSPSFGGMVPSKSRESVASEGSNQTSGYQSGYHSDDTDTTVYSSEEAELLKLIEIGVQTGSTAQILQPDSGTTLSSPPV

In series [3] the target is ALK3/BMPR1A (Homo sapiens, UniProt P36894). In words: Kinase assay (33P-ATP filter-binding), ALK3. In kind it is biochemical. The note with it: 1 mM; read-out: Kinase Selectivity ALK3/BMPR1A (1 mM). In outline: (§2)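 Kinase mixed into substrate in Hepes (pH 7.5)/MgCl2/EGTA/DTT buffer, 1% DMSO. Cpd acoustically dispensed, 20 min RT preinc. Start w/ 33P-ATP, 2 h RT, P81 spot, filter-binding.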
Sequence of ALK3/BMPR1A (P36894 24-532): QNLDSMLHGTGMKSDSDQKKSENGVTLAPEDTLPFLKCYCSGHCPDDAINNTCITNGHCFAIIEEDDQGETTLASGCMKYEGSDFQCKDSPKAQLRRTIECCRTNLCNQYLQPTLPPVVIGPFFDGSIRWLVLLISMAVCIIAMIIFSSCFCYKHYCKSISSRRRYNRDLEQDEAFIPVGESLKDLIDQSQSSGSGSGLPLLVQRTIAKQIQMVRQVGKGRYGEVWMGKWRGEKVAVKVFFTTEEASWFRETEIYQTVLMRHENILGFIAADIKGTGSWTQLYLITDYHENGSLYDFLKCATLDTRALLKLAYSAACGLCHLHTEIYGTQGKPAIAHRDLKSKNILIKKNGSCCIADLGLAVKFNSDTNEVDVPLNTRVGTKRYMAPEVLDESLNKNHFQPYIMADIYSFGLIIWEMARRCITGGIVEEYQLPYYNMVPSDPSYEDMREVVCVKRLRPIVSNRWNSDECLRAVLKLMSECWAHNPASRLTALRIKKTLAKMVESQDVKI

Series [4] deals with TGFbR2 (Homo sapiens, UniProt P37173). In words: Kinase assay (33P-ATP filter-binding), TGFbR2. In kind it is biochemical. Particulars: read-out: Kinase Selectivity TGFbR2. The procedure: as §1
Sequence of TGFbR2 (P37173 23-567, species assumed): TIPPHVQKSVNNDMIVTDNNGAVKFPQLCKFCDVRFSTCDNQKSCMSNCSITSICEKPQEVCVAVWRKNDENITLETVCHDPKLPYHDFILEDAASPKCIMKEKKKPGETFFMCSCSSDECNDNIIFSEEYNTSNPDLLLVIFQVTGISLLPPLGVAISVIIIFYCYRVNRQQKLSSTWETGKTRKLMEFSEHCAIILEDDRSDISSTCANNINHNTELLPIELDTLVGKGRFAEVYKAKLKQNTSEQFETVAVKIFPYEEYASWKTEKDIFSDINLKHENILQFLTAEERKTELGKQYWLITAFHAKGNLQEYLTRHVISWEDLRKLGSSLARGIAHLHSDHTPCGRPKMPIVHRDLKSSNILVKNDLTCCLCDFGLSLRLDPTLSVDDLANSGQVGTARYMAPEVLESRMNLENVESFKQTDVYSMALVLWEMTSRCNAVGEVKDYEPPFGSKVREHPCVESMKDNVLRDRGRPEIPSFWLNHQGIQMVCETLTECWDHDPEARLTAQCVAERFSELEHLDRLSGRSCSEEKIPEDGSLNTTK
The nature of series [5]: Intrinsic clearance, human. In kind it is in vitro ADME. Particulars: human.
Series [6] deals with ALK1/ACVRL1 (Homo sapiens, UniProt P37023). In words: Kinase assay (33P-ATP filter-binding), ALK1. In kind it is biochemical. The note with it: read-out: Kinase Selectivity ALK1/ACVRL1. In outline:
as §2

In series [7] the target is AMPK. In words: Kinase assay (33P-ATP filter-binding), AMPK. In kind it is biochemical. Particulars: read-out: Kinase Selectivity AMPK. The procedure: as §1
Series [8] can be described thus: Protein binding, human. In kind it is in vitro ADME.
Series [9] concerns the target T1, ALK2 (R206H) (Homo sapiens, UniProt Q04771, R206H).
T1 sequence (Q04771 21-509 R206H): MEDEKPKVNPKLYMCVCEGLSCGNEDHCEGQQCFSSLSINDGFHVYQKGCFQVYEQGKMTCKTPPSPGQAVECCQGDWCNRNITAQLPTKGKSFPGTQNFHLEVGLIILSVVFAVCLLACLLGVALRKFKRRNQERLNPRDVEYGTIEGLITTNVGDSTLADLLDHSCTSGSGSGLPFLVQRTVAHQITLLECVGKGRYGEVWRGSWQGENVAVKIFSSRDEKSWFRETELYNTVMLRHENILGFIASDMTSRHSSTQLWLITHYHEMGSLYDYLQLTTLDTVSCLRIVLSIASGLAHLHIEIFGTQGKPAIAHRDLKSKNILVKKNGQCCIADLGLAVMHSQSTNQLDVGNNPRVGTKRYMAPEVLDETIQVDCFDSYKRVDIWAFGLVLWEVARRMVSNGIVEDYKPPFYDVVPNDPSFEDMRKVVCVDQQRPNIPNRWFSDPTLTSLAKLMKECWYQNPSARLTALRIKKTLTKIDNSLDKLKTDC
Description: Kinase assay (33P-ATP filter-binding), ALK2 R206H. In kind it is biochemical. Particulars: R206H mutant, 20 mM; read-out: Kinase Selectivity ALK2 (R206H, 20 mM). The essentials:
as §2

The target of series [10] is ALK6 (Homo sapiens, UniProt O00238). Description: Kinase assay (33P-ATP filter-binding), ALK6. In kind it is biochemical. The note with it: read-out: Kinase Selectivity ALK6. On the procedure:
as §1

Series [11] in a line: Intrinsic clearance, mouse. The class given is in vitro ADME. The note with it: mouse.
Series [12] has as its target T2, ALK2 (Q207D) (Homo sapiens, UniProt Q04771, Q207D).
T2 sequence (Q04771 21-509 Q207D): T1 sequence (Q04771 21-509 R206H) with H186R, Q187D
Description: Kinase assay (33P-ATP filter-binding), ALK2 Q207D. The class given is biochemical. The note with it: Q207D mutant, 20 mM; read-out: Kinase Selectivity ALK2 (Q207D, 20 mM). The essentials:
as §2

The target in series [13] is T3, ALK5 (Homo sapiens, UniProt P36897).
T3 sequence (P36897 34-503): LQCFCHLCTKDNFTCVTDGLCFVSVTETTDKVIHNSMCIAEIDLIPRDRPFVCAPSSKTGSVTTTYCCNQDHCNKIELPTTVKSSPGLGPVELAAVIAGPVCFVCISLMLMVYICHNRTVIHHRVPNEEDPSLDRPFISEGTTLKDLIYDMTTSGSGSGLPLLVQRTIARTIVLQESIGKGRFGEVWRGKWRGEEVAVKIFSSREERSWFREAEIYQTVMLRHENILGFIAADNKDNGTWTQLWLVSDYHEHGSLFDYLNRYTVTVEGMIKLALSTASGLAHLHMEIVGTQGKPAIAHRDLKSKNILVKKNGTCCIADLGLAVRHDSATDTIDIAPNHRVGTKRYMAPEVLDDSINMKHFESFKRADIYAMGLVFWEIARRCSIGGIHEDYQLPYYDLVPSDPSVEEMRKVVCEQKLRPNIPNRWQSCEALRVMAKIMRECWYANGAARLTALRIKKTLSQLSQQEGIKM
Description: Kinase assay (33P-ATP filter-binding), ALK5. The class given is biochemical. The note with it: read-out: Kinase Selectivity ALK5. The procedure: as §1

[14] abbreviates: CL-Hep, value in parentheses, read-out: Intrinsic Clearance Human (CL-Hep).
[15] abbreviates: read-out: Intrinsic Clearance Human.
[16] abbreviates: CL-Hep, value in parentheses, read-out: Intrinsic Clearance Mouse (CL-Hep).
The mark [17] stands for this setting: read-out: Intrinsic Clearance Mouse.

Changes are numbered by the printed parent chain.

Sequence of ALK1/ACVRL1 (P37023 22-503): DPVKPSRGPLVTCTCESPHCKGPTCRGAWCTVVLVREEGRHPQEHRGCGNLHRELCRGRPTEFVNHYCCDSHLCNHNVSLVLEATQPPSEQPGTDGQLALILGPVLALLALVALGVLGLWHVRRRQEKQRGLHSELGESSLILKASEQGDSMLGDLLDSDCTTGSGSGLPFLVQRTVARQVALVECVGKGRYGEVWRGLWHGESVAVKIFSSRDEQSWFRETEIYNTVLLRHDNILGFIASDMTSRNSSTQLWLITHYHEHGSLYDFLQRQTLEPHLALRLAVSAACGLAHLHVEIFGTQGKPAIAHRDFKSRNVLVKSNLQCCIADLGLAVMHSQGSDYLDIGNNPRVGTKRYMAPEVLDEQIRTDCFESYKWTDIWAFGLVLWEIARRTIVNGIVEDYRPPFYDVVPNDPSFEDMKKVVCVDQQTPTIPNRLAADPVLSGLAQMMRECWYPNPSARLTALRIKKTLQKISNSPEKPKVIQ
Sequence of ALK6 (O00238 14-502): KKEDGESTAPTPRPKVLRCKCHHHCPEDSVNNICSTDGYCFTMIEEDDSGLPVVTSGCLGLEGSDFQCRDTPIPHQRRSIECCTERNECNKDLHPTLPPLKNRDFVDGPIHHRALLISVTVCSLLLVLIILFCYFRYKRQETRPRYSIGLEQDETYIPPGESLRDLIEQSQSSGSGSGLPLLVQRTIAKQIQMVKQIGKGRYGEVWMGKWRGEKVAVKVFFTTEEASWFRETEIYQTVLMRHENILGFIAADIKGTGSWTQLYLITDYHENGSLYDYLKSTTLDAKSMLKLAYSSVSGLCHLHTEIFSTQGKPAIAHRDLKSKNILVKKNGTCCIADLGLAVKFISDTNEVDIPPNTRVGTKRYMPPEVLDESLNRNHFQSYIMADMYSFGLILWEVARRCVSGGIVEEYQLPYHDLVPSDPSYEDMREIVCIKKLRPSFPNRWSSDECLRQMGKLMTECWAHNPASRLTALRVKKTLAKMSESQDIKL

Consider `NS(=O)(=O)c1ccc(-c2cnc3cc(-c4ccc(C5CNCCN5)cc4)ccn23)c2ccccc12` (stereo not drawn) [Compound 37], for which the IC50 in series [1] was 34.9 nM; in series [2] it was 31400 nM; in [3], 20300 nM; in series [4], 2680 nM; in [6], 723 nM; in series [7], 9320 nM. Further, the IC50 was 13.2 nM in series [9], 231 nM in series [10], 5.8 nM in series [12] and 456 nM in [13]. The CLint scaled in series [5] (setting [14]) is under 11 mL/min/kg; in series [5] (setting [15]), under 23.1 mL/min/kg; in [11] (setting [16]) it was under 31.9 mL/min/kg; in [11] (setting [17]) it was under 49.5 mL/min/kg. Besides, the “Protein Binding (% Free) Human” value in [8] was 11.7 % Free.

For the molecule `c1cc(-c2cnc3cc(-c4ccc(C5CNCCN5)cc4)ccn23)c2cccnc2c1` (stereo not drawn) [Compound 33], the IC50 in series [1] is 87.7 nM; in series [2], 39300 nM; in series [3], 82.7 nM; in [4], 620 nM; in [6] it was 61.3 nM; in [7] it was 39100 nM. Also, the IC50 in series [9] is under 5.1 nM; in series [10], 188 nM; in series [12], under 5.1 nM; in [13] it was 1140 nM. The CLint scaled in series [5] (setting [14]) was under 11 mL/min/kg; in series [5] (setting [15]), under 23.1 mL/min/kg; in series [11] (setting [16]), under 31.9 mL/min/kg; in series [11] (setting [17]), under 49.5 mL/min/kg. Further, the “Protein Binding (% Free) Human” value in series [8] came to 11 % Free.

As for `c1cnc2nccc(-c3cnc4cc(-c5ccc(C6CNCCN6)cc5)ccn34)c2c1` (stereo not drawn) [Compound 32], the IC50 is 13.5 nM in [1]; 9350 nM in series [2]; under 5.1 nM in series [3]; 4590 nM in [4]; 197 nM in series [6]; 20000 nM in series [7]. The IC50 in series [9] is 15.8 nM; in series [10], 54.5 nM; in series [12], under 5.1 nM; in series [13], 310 nM. Also, the CLint scaled in series [5] (setting [14]) is under 11 mL/min/kg; in [5] (setting [15]), under 23.1 mL/min/kg; in [11] (setting [16]), under 31.9 mL/min/kg; in series [11] (setting [17]), under 49.5 mL/min/kg. For the same molecule, the “Protein Binding (% Free) Human” value in series [8] is reported as 42.8 % Free.

Take `Cc1cc(-c2cnc3cc(-c4ccc(C5COC6(CCNC6)CN5)cc4)ccn23)c2cc(F)cc(F)c2n1` (stereo not drawn) [Compound 27]: the IC50 is 248 nM in series [1]; over 100000 nM in series [2]; 13.5 nM in series [3]; 1870 nM in [4]; 907 nM in [6]; 18900 nM in series [7]. Also, the IC50 is 326 nM in series [9], 429 nM in series [10], 219 nM in series [12] and 3290 nM in series [13]. The CLint scaled in [5] (setting [14]) was under 10.7 mL/min/kg; in [5] (setting [15]), under 23.1 mL/min/kg; in [11] (setting [16]), under 32.9 mL/min/kg; in [11] (setting [17]), under 49.5 mL/min/kg. For the same molecule, the “Protein Binding (% Free) Human” value in series [8] is given as 4.97 % Free.

As to `O=C1CNC(=O)C(c2ccc(-c3ccn4c(-c5cccc6ncccc56)cnc4c3)cc2)N1` (stereo not drawn) [Compound 36], the IC50 in [1] worked out at 29.6 nM; in series [2], 36900 nM; in [3], 295 nM; in series [4], 498 nM; in [6] it was 84.9 nM; in series [7], 11500 nM. Further, the IC50 in series [9] is under 5.1 nM; in [10], 188 nM; in [12], under 5.1 nM; in [13] it was 717 nM.

As for `Cc1cc(-c2cnc3cc(-c4ccc(C5COCC(C)N5)cc4)ccn23)c2cc(F)cc(F)c2n1` (stereo not drawn) [Compound 23], the IC50 in series [2] was 47400 nM; in series [3] it was under 5.1 nM; in [4], 560 nM; in series [6], 42.8 nM; in series [7] it was over 100000 nM; in series [9] it was under 5.1 nM. The IC50 in series [10] is 369 nM; in [12] it was under 5.1 nM; in [13], 354 nM. Besides, the CLint scaled turned out to be 17.5 mL/min/kg in [5] (setting [14]), 139 mL/min/kg in series [5] (setting [15]), 42.9 mL/min/kg in series [11] (setting [16]) and 82.2 mL/min/kg in [11] (setting [17]). Further, in [8], the “Protein Binding (% Free) Human” value is reported as 1.11 % Free.

Turning to `Cc1cc(-c2cnc3cc(-c4ccc(C5COC6(CCNCC6)CN5)cc4)ccn23)c2cc(F)cc(F)c2n1` (stereo not drawn) [Compound 16], the IC50 in series [1] is 87.7 nM; in series [2], 39300 nM; in series [3], under 5.1 nM; in series [4], 620 nM; in [6], 152 nM; in series [7], 39100 nM. Besides, the IC50 in series [9] is under 5.1 nM; in [10], 188 nM; in series [12] it was 6.3 nM; in series [13], 1140 nM. Besides, the CLint scaled was under 10.7 mL/min/kg in series [5] (setting [14]), under 23.1 mL/min/kg in series [5] (setting [15]), under 32.9 mL/min/kg in series [11] (setting [16]) and under 49.5 mL/min/kg in series [11] (setting [17]). Besides, the “Protein Binding (% Free) Human” value in series [8] was found to be 5.61 % Free.
